We go through eight compounds from PubChem BioAssay AID1745844 (Carcinogenic Potency Database (CPDB), 2022).

Calls of active or inactive are those of the source. How the calls were made is not given here.

For this data set, the system named is rodent lifetime carcinogenesis bioassay, tumor incidence TD50. Kind of data set: chronic cancer bioassays in animals – CPDB, compiled studies (AID 1745844).

Turning to `Nc1ccc2nc3ccccn3c2n1`, the TD50 (as a rule, the dose at which the toxic effect under study appears in half of the subjects) is, setting by setting: (mouse, strain CDF1, females, in feed, site: blood vessels, lesion: hemangioendothelial sarcoma, dosed 82 weeks, study length 82 weeks) 43 mg/kg/day; (mouse, strain CDF1, females, in feed, site: blood vessels, lesion: several types, types named in the paper, dosed 82 weeks, study length 82 weeks) 39.9 mg/kg/day; (mouse, strain CDF1, females, in feed, site: liver, lesion: hepatocellular adenoma, dosed 82 weeks, study length 82 weeks) 170 mg/kg/day; (mouse, strain CDF1, females, in feed, site: liver, lesion: hepatocellular carcinoma, dosed 82 weeks, study length 82 weeks) 20 mg/kg/day; (mouse, strain CDF1, females, in feed, site: liver, lesion: several types, types named in the paper, dosed 82 weeks, study length 82 weeks) 12 mg/kg/day; (mouse, strain CDF1, females, in feed, site: lung, lesion: adenoma, dosed 82 weeks, study length 82 weeks) 1090 mg/kg/day. In addition, the TD50 reads like this: (mouse, strain CDF1, males, in feed, site: blood vessels, lesion: hemangioendothelial sarcoma, dosed 84 weeks, study length 84 weeks) 27.3 mg/kg/day; (mouse, strain CDF1, males, in feed, site: blood vessels, lesion: several types, types named in the paper, dosed 84 weeks, study length 84 weeks) 23.9 mg/kg/day; (mouse, strain CDF1, males, in feed, site: liver, lesion: hepatocellular adenoma, dosed 84 weeks, study length 84 weeks) 201 mg/kg/day; (mouse, strain CDF1, males, in feed, site: liver, lesion: hepatocellular carcinoma, dosed 84 weeks, study length 84 weeks) 255 mg/kg/day; (mouse, strain CDF1, males, in feed, site: liver, lesion: several types, types named in the paper, dosed 84 weeks, study length 84 weeks) 93.2 mg/kg/day; (mouse, strain CDF1, males, in feed, site: lung, lesion: adenoma, dosed 84 weeks, study length 84 weeks) 483 mg/kg/day. Moreover, the TD50 was 94 mg/kg/day (rat, strain F344/DuCrj, females, in feed, site: Zymbal's gland, lesion: squamous-cell carcinoma, dosed 104 weeks, study length 104 weeks); 56.4 mg/kg/day (rat, strain F344/DuCrj, females, in feed, site: clitoral gland, lesion: one or several types, types not named, dosed 104 weeks, study length 104 weeks); 351 mg/kg/day (rat, strain F344/DuCrj, females, in feed, site: colon, lesion: adenocarcinoma, dosed 104 weeks, study length 104 weeks); 111 mg/kg/day (rat, strain F344/DuCrj, females, in feed, site: colon, lesion: adenoma, dosed 104 weeks, study length 104 weeks); 81.1 mg/kg/day (rat, strain F344/DuCrj, females, in feed, site: colon, lesion: several types, types named in the paper, dosed 104 weeks, study length 104 weeks); 351 mg/kg/day (rat, strain F344/DuCrj, females, in feed, site: liver, lesion: several types, types named in the paper, dosed 104 weeks, study length 104 weeks). The TD50 was 135 mg/kg/day (rat, strain F344/DuCrj, females, in feed, site: small intestine, lesion: adenocarcinoma, dosed 104 weeks, study length 104 weeks); 171 mg/kg/day (rat, strain F344/DuCrj, females, in feed, site: small intestine, lesion: adenoma, dosed 104 weeks, study length 104 weeks); 711 mg/kg/day (rat, strain F344/DuCrj, females, in feed, site: small intestine, lesion: mucinous carcinoma, dosed 104 weeks, study length 104 weeks); 81.1 mg/kg/day (rat, strain F344/DuCrj, females, in feed, site: small intestine, lesion: several types, types named in the paper, dosed 104 weeks, study length 104 weeks); 569 mg/kg/day (rat, strain F344/DuCrj, males, in feed, site: Zymbal's gland, lesion: squamous-cell carcinoma, dosed 104 weeks, study length 104 weeks); 281 mg/kg/day (rat, strain F344/DuCrj, males, in feed, site: brain, lesion: astrocytoma, dosed 104 weeks, study length 104 weeks). Besides, the TD50 (rat, strain F344/DuCrj, males, in feed, site: colon, lesion: adenocarcinoma, dosed 104 weeks, study length 104 weeks) is 185 mg/kg/day; the TD50 (rat, strain F344/DuCrj, males, in feed, site: colon, lesion: adenoma, dosed 104 weeks, study length 104 weeks) was 185 mg/kg/day; the TD50 (rat, strain F344/DuCrj, males, in feed, site: colon, lesion: several types, types named in the paper, dosed 104 weeks, study length 104 weeks) is 88.9 mg/kg/day; the TD50 (rat, strain F344/DuCrj, males, in feed, site: liver, lesion: several types, types named in the paper, dosed 104 weeks, study length 104 weeks) is 52.1 mg/kg/day; the TD50 (rat, strain F344/DuCrj, males, in feed, site: small intestine, lesion: adenocarcinoma, dosed 104 weeks, study length 104 weeks) was 45.1 mg/kg/day; the TD50 (rat, strain F344/DuCrj, males, in feed, site: small intestine, lesion: adenoma, dosed 104 weeks, study length 104 weeks) was 137 mg/kg/day. In addition, the TD50 (rat, strain F344/DuCrj, males, in feed, site: small intestine, lesion: mucinous carcinoma, dosed 104 weeks, study length 104 weeks) is 281 mg/kg/day and the TD50 (rat, strain F344/DuCrj, males, in feed, site: small intestine, lesion: several types, types named in the paper, dosed 104 weeks, study length 104 weeks) is 33.8 mg/kg/day.
Regarding `Nc1ccc(N(CCO)CCO)cc1`, the TD50 (rat, strain F344/DuCrj, females, in feed, site: liver, lesion: hepatocellular adenoma, dosed 104 weeks, study length 104 weeks) was 7310 mg/kg/day (inactive). The carcinogen call is, setting by setting: (rat, strain F344/DuCrj, males, in feed, site: liver, lesion: hepatocellular adenoma, dosed 104 weeks, study length 104 weeks) “negative (inactive)”; (rat, strain F344/DuCrj, males, in feed, site: liver, lesion: hepatocellular carcinoma, dosed 104 weeks, study length 104 weeks) “negative (inactive)”.
In the case of `CCCOC(=O)C1c2cc3c(cc2CC(C)C1C(=O)OCCC)OCO3` (stereo not given), the TD50 runs as follows: (mouse, strain B6AKF1, females, oral dosing, site: any site (literature study), lesion: several types, types named in the paper, dosed 76 weeks, study length 76 weeks) 4390 mg/kg/day (inactive); (mouse, strain B6AKF1, females, oral dosing, site: lung, lesion: adenoma, dosed 76 weeks, study length 76 weeks) 4690 mg/kg/day (inactive); (mouse, strain B6C3F1, males, oral dosing, site: any site (literature study), lesion: several types, types named in the paper, dosed 76 weeks, study length 76 weeks) 374 mg/kg/day (inactive); (mouse, strain B6C3F1, males, oral dosing, site: liver, lesion: hepatoma, dosed 76 weeks, study length 76 weeks) 1050 mg/kg/day (inactive); (mouse, strain B6C3F1, males, oral dosing, site: lung, lesion: adenoma, dosed 76 weeks, study length 76 weeks) 4650 mg/kg/day (inactive). The carcinogen call was “negative (inactive)” (mouse, strain B6AKF1, females, oral dosing, site: liver, lesion: hepatoma, dosed 76 weeks, study length 76 weeks); “negative (inactive)” (mouse, strain B6AKF1, males, oral dosing, site: any site (literature study), lesion: several types, types named in the paper, dosed 76 weeks, study length 76 weeks); “negative (inactive)” (mouse, strain B6AKF1, males, oral dosing, site: liver, lesion: hepatoma, dosed 76 weeks, study length 76 weeks); “negative (inactive)” (mouse, strain B6AKF1, males, oral dosing, site: lung, lesion: adenoma, dosed 76 weeks, study length 76 weeks); “negative (inactive)” (mouse, strain B6C3F1, females, oral dosing, site: any site (literature study), lesion: one or several types, types not named, dosed 76 weeks, study length 76 weeks); “negative (inactive)” (mouse, strain B6C3F1, females, oral dosing, site: liver, lesion: hepatoma, dosed 76 weeks, study length 76 weeks). For the same compound, the carcinogen call (mouse, strain B6C3F1, females, oral dosing, site: lung, lesion: several types, types named in the paper, dosed 76 weeks, study length 76 weeks) is “negative (inactive)”.
For `CC(C)(C)c1cc(C(C)(C)C)c(O)c(C(C)(C)C)c1`, the carcinogen call (rat, strain Wistar, females, in feed, site: liver, lesion: one or several types, types not named, dosed 52 weeks, study length 52 weeks) is “negative (inactive)”; the carcinogen call (rat, strain Wistar, females, in feed, site: liver, lesion: one or several types, types not named, dosed 78 weeks, study length 78 weeks) was “negative (inactive)”; the carcinogen call (rat, strain Wistar, females, in feed, site: liver, lesion: one or several types, types not named, dosed 104 weeks, study length 104 weeks) is “negative (inactive)”; the carcinogen call (rat, strain Wistar, males, in feed, site: liver, lesion: one or several types, types not named, dosed 52 weeks, study length 52 weeks) was “negative (inactive)”; the carcinogen call (rat, strain Wistar, males, in feed, site: liver, lesion: one or several types, types not named, dosed 78 weeks, study length 78 weeks) is “negative (inactive)”; the carcinogen call (rat, strain Wistar, males, in feed, site: liver, lesion: one or several types, types not named, dosed 104 weeks, study length 104 weeks) is “negative (inactive)”.
Take `CC(O)CN(CC(C)O)CC(C)O` (stereo not given): the carcinogen call (rat, strain Wistar, males, in feed, site: liver, lesion: one or several types, types not named, dosed 102 weeks, study length 102 weeks) is “negative (inactive)”.
Consider `NC(=O)NC1NC(=O)NC1=O` (stereo not given), for which the carcinogen call by setting is: (rat, strain Fischer 344, females, in feed, site: liver, lesion: neoplastic nodule, dosed 106 weeks, study length 128 weeks) “negative (inactive)”; (rat, strain Fischer 344, males, in feed, site: liver, lesion: neoplastic nodule, dosed 106 weeks, study length 128 weeks) “negative (inactive)”.
Take `O=C(O)c1cc(Oc2ccc(C(F)(F)F)cc2Cl)ccc1[N+](=O)[O-]`: the TD50 reads like this: (mouse, strain B6C3F1, females, in feed, site: liver, lesion: hepatocellular adenoma, dosed 78 weeks, study length 78 weeks) 434 mg/kg/day; (mouse, strain B6C3F1, females, in feed, site: liver, lesion: hepatocellular carcinoma, dosed 78 weeks, study length 78 weeks) 1380 mg/kg/day; (mouse, strain B6C3F1, females, in feed, site: liver, lesion: several types, types named in the paper, dosed 78 weeks, study length 78 weeks) 328 mg/kg/day; (mouse, strain B6C3F1, females, in feed, site: stomach, lesion: papilloma, dosed 78 weeks, study length 78 weeks) 1050 mg/kg/day; (mouse, strain B6C3F1, males, in feed, site: liver, lesion: hepatocellular adenoma, dosed 78 weeks, study length 78 weeks) 331 mg/kg/day; (mouse, strain B6C3F1, males, in feed, site: liver, lesion: hepatocellular carcinoma, dosed 78 weeks, study length 78 weeks) 395 mg/kg/day. The TD50 is, setting by setting: (mouse, strain B6C3F1, males, in feed, site: liver, lesion: several types, types named in the paper, dosed 78 weeks, study length 78 weeks) 149 mg/kg/day; (mouse, strain B6C3F1, males, in feed, site: stomach, lesion: papilloma, dosed 78 weeks, study length 78 weeks) 2050 mg/kg/day; (mouse, strain Charles River CD1, females, in feed, site: liver, lesion: hepatocellular adenoma, dosed 104 weeks, study length 104 weeks) 160 mg/kg/day; (mouse, strain Charles River CD1, females, in feed, site: liver, lesion: hepatocellular carcinoma, dosed 104 weeks, study length 104 weeks) 715 mg/kg/day; (mouse, strain Charles River CD1, females, in feed, site: liver, lesion: several types, types named in the paper, dosed 104 weeks, study length 104 weeks) 126 mg/kg/day; (mouse, strain Charles River CD1, males, in feed, site: liver, lesion: hepatocellular adenoma, dosed 104 weeks, study length 104 weeks) 187 mg/kg/day. Also, the TD50 by setting is: (mouse, strain Charles River CD1, males, in feed, site: liver, lesion: hepatocellular carcinoma, dosed 104 weeks, study length 104 weeks) 307 mg/kg/day; (mouse, strain Charles River CD1, males, in feed, site: liver, lesion: several types, types named in the paper, dosed 104 weeks, study length 104 weeks) 93.8 mg/kg/day.
As to `Nc1cc(Cl)c(-c2cc(Cl)c(N)cc2Cl)cc1Cl`, the TD50 turned out to be 109 mg/kg/day (mouse, strain dd, females, in feed, site: all sites, lesion: malignant lymphoma, dosed 104 weeks, study length 104 weeks); 87.2 mg/kg/day (mouse, strain dd, females, in feed, site: any site (literature study), lesion: malignant tumor, dosed 104 weeks, study length 104 weeks); 735 mg/kg/day (rat, strain Wistar, females, in feed, site: liver, lesion: hepatoma, dosed 104 weeks, study length 104 weeks); 2310 mg/kg/day (rat, strain Wistar, females, in feed, site: urinary bladder, lesion: transitional-cell carcinoma, dosed 104 weeks, study length 104 weeks); 561 mg/kg/day (rat, strain Wistar, males, in feed, site: urinary bladder, lesion: transitional-cell carcinoma, dosed 104 weeks, study length 104 weeks).
